Test results: ChEMBL document CHEMBL1201862, “PubChem BioAssay data set” (2004)
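Five compound concentrations were applied to cells in 96-well plates for 48 hours; endpoints were derived by simple linear interpolation of the resulting dose-response curve. GI50 = concentration required for 50% inhibition of growth.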 The source made the active and inactive calls. Rule as the data show it: active = GI50 up to about 1.1 µM and inactive = higher.

What was measured:
Assay in all cases: DTP human tumour cell line panel, 48 h
EKVX = tested on: EKVX
HOP-62 = tested on: HOP-62
HOP-92 = tested on: HOP-92
K562 = tested on: K562
LOX IMVI = tested on: LOX IMVI
M14 = tested on: M14
MOLT-4 = tested on: MOLT-4
NCI-H23 = tested on: NCI-H23
RPMI-8226 = tested on: RPMI-8226
RXF 393 = tested on: RXF 393
SK-MEL-28 = tested on: SK-MEL-28
SNB-78 = tested on: SNB-78
TK-10 = tested on: TK-10
HCC 2998 = tested on: HCC 2998
NCI-H226 = tested on: NCI-H226
NCI-H522 = tested on: NCI-H522
DU-145 = tested on: DU-145
Hs-578T = tested on: Hs-578T
MDA-MB-435 = tested on: MDA-MB-435
SR = tested on: SR

Measured: GI50

CC1C=C(OC(=O)c2ccccc2)C(=O)C(n2cc(F)c(=O)n(C(=O)c3ccccc3)c2=O)O1 (stereo not drawn)
inactive: EKVX > 100 µM | HOP-62 > 100 µM | HOP-92 35.6 µM | K562 25.4 µM | LOX IMVI 23.1 µM | M14 51.3 µM | MOLT-4 32.7 µM | NCI-H23 43 µM | RPMI-8226 38.1 µM | RXF 393 33.3 µM | SK-MEL-28 46.8 µM | SNB-78 51.2 µM | TK-10 69.3 µM

C1CCN2CC3CONC3C2C1 (stereo not drawn)
inactive: EKVX > 100 µM | HCC 2998 > 100 µM | HOP-62 > 100 µM | K562 > 100 µM | LOX IMVI > 100 µM | M14 > 100 µM | MOLT-4 > 100 µM | NCI-H226 > 100 µM | NCI-H23 > 100 µM | NCI-H522 > 100 µM | RPMI-8226 > 100 µM | RXF 393 > 100 µM | SK-MEL-28 > 100 µM | SNB-78 > 100 µM | TK-10 > 100 µM

COCCOCCOCCOc1cccc2c1C(=O)c1cccc(OCCOCCOCCOC)c1C2=O
inactive: EKVX > 100 µM | HCC 2998 > 100 µM | HOP-62 > 100 µM | HOP-92 > 100 µM | K562 37.8 µM | LOX IMVI 70.1 µM | M14 > 100 µM | MOLT-4 71.8 µM | NCI-H23 > 100 µM | RPMI-8226 65.3 µM | RXF 393 92.9 µM | SK-MEL-28 > 100 µM | SNB-78 > 100 µM | TK-10 > 100 µM

CN(C)/C(=N\C#N)N(Cc1ccccc1)Cc1ccccc1
inactive: EKVX > 100 µM | HCC 2998 72.1 µM | HOP-62 > 100 µM | HOP-92 36.3 µM | K562 17.9 µM | LOX IMVI 36.6 µM | M14 > 100 µM | NCI-H226 > 100 µM | NCI-H23 > 100 µM | NCI-H522 24.9 µM | RPMI-8226 32.5 µM | RXF 393 42.6 µM | SK-MEL-28 > 100 µM | SNB-78 > 100 µM | TK-10 > 100 µM

CC1NOC(=O)C1/N=N/c1ccccc1Cl (stereo not drawn)
inactive: EKVX 88.9 µM | HCC 2998 48.3 µM | HOP-62 92.3 µM | HOP-92 21.6 µM | K562 40.7 µM | LOX IMVI 20.6 µM | M14 40.6 µM | MOLT-4 > 10 µM | NCI-H23 29.9 µM | NCI-H522 17.4 µM | RPMI-8226 20.4 µM | RXF 393 26.4 µM | SK-MEL-28 32.7 µM | SNB-78 52.5 µM | TK-10 90.4 µM

COCC1N=C(c2ccc(OC)c(OCc3ccccc3)c2OC)O[C@H]1c1ccccc1 (stereo partly drawn)
inactive: EKVX 34 µM | HCC 2998 35.6 µM | HOP-62 37.2 µM | HOP-92 13.1 µM | K562 12.3 µM | LOX IMVI 13.9 µM | M14 14.6 µM | MOLT-4 5.81 µM | NCI-H226 29 µM | NCI-H23 17.7 µM | NCI-H522 20.8 µM | RPMI-8226 5.65 µM | RXF 393 29.3 µM | SK-MEL-28 20.7 µM | SNB-78 29.1 µM | TK-10 35.2 µM

O=C1C(=O)N(c2cc(Cl)ccc2Cl)C(=O)C(=O)C1c1nc2ccccc2o1
inactive: EKVX > 100 µM | HCC 2998 > 100 µM | HOP-62 > 100 µM | HOP-92 > 100 µM | K562 61.1 µM | LOX IMVI > 100 µM | M14 > 91.8 µM | MOLT-4 30.1 µM | NCI-H23 > 100 µM | NCI-H522 90.6 µM | RPMI-8226 > 100 µM | RXF 393 > 100 µM | SK-MEL-28 > 100 µM | SNB-78 > 100 µM | TK-10 > 100 µM

CN(CCCNC(=O)c1nn(-c2ccccc2)c2c1ccc1ccccc12)CCCNC(=O)c1nn(-c2ccccc2)c2c1ccc1ccccc12
inactive: DU-145 1.91 µM | EKVX 1.81 µM | HCC 2998 1.31 µM | HOP-62 1.86 µM | HOP-92 1.83 µM | Hs-578T 2.58 µM | K562 1.29 µM | LOX IMVI 1.73 µM | M14 1.85 µM | MDA-MB-435 1.75 µM | MOLT-4 1.98 µM | NCI-H226 2.08 µM | NCI-H23 1.82 µM | NCI-H522 1.79 µM | RPMI-8226 1.47 µM | RXF 393 1.76 µM | SK-MEL-28 1.74 µM | SR 1.24 µM | TK-10 1.78 µM

Cc1ccc(Nc2nc(=S)[nH]c3[nH]ncc23)cc1
inactive: DU-145 85.5 µM | EKVX > 100 µM | HCC 2998 77.3 µM | HOP-62 > 100 µM | HOP-92 > 100 µM | Hs-578T 77.1 µM | K562 49 µM | LOX IMVI 37.5 µM | M14 > 100 µM | MDA-MB-435 39.8 µM | MOLT-4 > 100 µM | NCI-H226 > 100 µM | NCI-H23 59.7 µM | NCI-H522 32.2 µM | RPMI-8226 24 µM | RXF 393 > 100 µM | SK-MEL-28 48.3 µM | SR 36.1 µM | TK-10 81.1 µM

COc1ccc2c(c1)/C(=C\c1c(Cl)[nH]c3ccccc13)C(=O)N2
inactive: DU-145 19.3 µM | EKVX 3.3 µM | HCC 2998 2.68 µM | HOP-62 5.75 µM | HOP-92 1.84 µM | Hs-578T 2.51 µM | K562 3.62 µM | LOX IMVI 5.09 µM | M14 4.08 µM | MDA-MB-435 1.91 µM | MOLT-4 5.33 µM | NCI-H226 16.2 µM | NCI-H23 11.4 µM | NCI-H522 3.05 µM | RPMI-8226 3.61 µM | RXF 393 2.88 µM | SK-MEL-28 3.39 µM | SR 2.03 µM | TK-10 6.9 µM

COC(=O)c1c(C)[nH]c2c1cc(O)c1nc(C)c(C)nc12
inactive: DU-145 > 100 µM | EKVX > 100 µM | HCC 2998 > 100 µM | HOP-62 18.7 µM | HOP-92 37.9 µM | Hs-578T 45.9 µM | K562 > 100 µM | LOX IMVI > 100 µM | M14 > 100 µM | MDA-MB-435 > 100 µM | MOLT-4 > 100 µM | NCI-H226 > 100 µM | NCI-H23 49.4 µM | NCI-H522 74.8 µM | RPMI-8226 > 100 µM | RXF 393 28 µM | SK-MEL-28 > 100 µM | SR > 100 µM | TK-10 29.2 µM

O=C(O)c1cc2cc(OCc3ccccc3)ccc2[nH]1
inactive: DU-145 > 100 µM | EKVX > 100 µM | HCC 2998 > 100 µM | HOP-62 > 100 µM | HOP-92 23.6 µM | Hs-578T 4.72 µM | K562 > 100 µM | LOX IMVI > 100 µM | M14 > 100 µM | MDA-MB-435 > 100 µM | MOLT-4 > 100 µM | NCI-H226 23.4 µM | NCI-H23 > 100 µM | NCI-H522 > 100 µM | RPMI-8226 > 100 µM | RXF 393 > 100 µM | SK-MEL-28 4.01 µM | SR > 100 µM | TK-10 > 100 µM

Cc1nc(N)nn1C1OCC(O)C(O)C1O (stereo not drawn)
inactive: EKVX > 100 µM | HCC 2998 > 100 µM | HOP-62 > 100 µM | K562 > 100 µM | M14 > 100 µM | MOLT-4 > 100 µM | NCI-H23 > 100 µM | NCI-H522 > 100 µM | RPMI-8226 > 100 µM | RXF 393 > 100 µM | SK-MEL-28 > 100 µM | SNB-78 > 100 µM | TK-10 > 100 µM

CN(Cc1cnc2nc(N)nc(N)c2n1)c1ccc(C(=O)NC(CCC(=O)NCCC(P(=O)(O)O)P(=O)(O)O)C(=O)O)cc1 (stereo not drawn)
inactive: DU-145 21.2 µM | EKVX 69.5 µM | HCC 2998 71.4 µM | HOP-62 52.6 µM | HOP-92 > 100 µM | Hs-578T > 100 µM | K562 1.47 µM | LOX IMVI 4.38 µM | M14 4.85 µM | MDA-MB-435 6.03 µM | MOLT-4 6.5 µM | NCI-H226 > 89.7 µM | NCI-H23 24.5 µM | NCI-H522 > 88.3 µM | RPMI-8226 6.85 µM | RXF 393 > 100 µM | SK-MEL-28 > 100 µM | SR 3.17 µM | TK-10 > 100 µM

CCSc1c2cc(OC)ccc2nc2ccc(OC)cc12
inactive: DU-145 18.2 µM | EKVX 9.84 µM | HCC 2998 7.53 µM | HOP-62 19.1 µM | HOP-92 > 60.8 µM | Hs-578T > 100 µM | K562 5.74 µM | LOX IMVI 13.2 µM | M14 11.9 µM | MDA-MB-435 5.13 µM | MOLT-4 3.22 µM | NCI-H226 11.9 µM | NCI-H23 9.44 µM | NCI-H522 9.33 µM | RPMI-8226 4.24 µM | RXF 393 11.6 µM | SK-MEL-28 14.9 µM | SR 2.76 µM | TK-10 9.64 µM

C=C(C)C(=O)OC1C(C(C)CCCO)=C(CO)CC2OC(=O)C(=C)C21 (stereo not drawn)
inactive: DU-145 14.6 µM | EKVX 24.6 µM | HCC 2998 17.7 µM | HOP-62 26.5 µM | HOP-92 16.7 µM | Hs-578T 16.8 µM | K562 15.2 µM | LOX IMVI 10.1 µM | M14 16.3 µM | MDA-MB-435 19.9 µM | MOLT-4 18.4 µM | NCI-H226 37.9 µM | NCI-H23 19.3 µM | NCI-H522 3.44 µM | RPMI-8226 17.1 µM | RXF 393 13.8 µM | SK-MEL-28 20 µM | SR 14.5 µM | TK-10 30.3 µM
